Legend:
Assay type in all cases: in vivo
[1] = system: Chilo suppressalis (Striped Rice Stemborer); assay: Example B3: Chilo suppressalis (striped rice stemborer), artificial diet, L2 larvae; conditions: 144 h, application rate of 200 ppm, 6 days after infestation, L2 larvae, read-out: control in at least one of the three categories (mortality, anti-feedant effect, or growth inhibition)
In short: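 Scoring covers mortality, anti-feedant effect and growth inhibition at 6 days post-infestation, relative to untreated diet, with activity defined as at least one category above untreated. Test solutions were aqueous, made from 10'000 ppm DMSO stocks, and applied to artificial diet before drying and infestation with L2 larvae.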

[2] = system: Diabrotica Balteata (Corn Root Worm); assay: Example B1: Diabrotica balteata (corn root worm), maize sprouts sprayed, L2 larvae; conditions: 96 h, application rate of 200 ppm, 4 days after infestation, L2 larvae, read-out: control in at least one of the two categories (mortality or growth inhibition)
In short: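 Maize sprouts on agar were sprayed with aqueous test solutions made from 10′000 ppm DMSO stocks, dried, then infested with 6 to 10 L2 larvae per well. Mortality and growth inhibition were scored against untreated samples 4 days after infestation.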

[3] = system: Plutella xylostella (Diamond Back Moth); assay: Example B4: Plutella xylostella (diamond back moth), artificial diet, eggs, 24-well; conditions: 192 h, application rate of 200 ppm, 8 days after infestation, eggs, read-out: control in at least one of the two categories (mortality or growth inhibition)
Description: 24-well microtiter plates with artificial diet were treated with aqueous test solutions prepared from 10′000 ppm DMSO stock solutions by pipetting. After drying, Plutella eggs were pipetted through a plastic stencil onto a gel blotting paper and the plate was closed with it. The samples were assessed for mortality and growth inhibition in comparison to untreated samples 8 days after infestation.

[4] = system: Spodoptera littoralis (Egyptian Cotton Leaf Worm); assay: Example B7: Spodoptera littoralis (Egyptian cotton leaf worm), cotton leaf discs sprayed, L1 larvae; conditions: foliar, 72 h, application rate of 200 ppm, 3 days after infestation, L1 larvae, read-out: control in at least one of the three categories (mortality, anti-feedant effect, or growth inhibition)
In short: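 Leaf discs on agar; spray, aqueous dilution of 10′000 ppm DMSO stock; dry; 5 L1 larvae/disc. Read at 3 d post-infestation: mortality, antifeedant, growth inhibition vs untreated. Control = ≥1 category above untreated.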

CC(c1ncnn1-c1ccc(F)cn1)N(C)c1ncnc2c(Cl)cc(C(F)(F)F)cc12 (stereo not drawn) [P.232, 8-chloro-N-[1-[2-(5-fluoro-2-pyridyl)-1,2,4-triazol-3-yl]ethyl]-N-methyl-6-(trifluoromethyl)quinazolin-4-amine]
≥ 80%: percent control (mortality, anti-feedant effect or growth inhibition) at 200 ppm [1] | percent control (mortality or growth inhibition) at 200 ppm [2] | percent control (mortality or growth inhibition) at 200 ppm [3] | percent control (mortality, anti-feedant effect or growth inhibition) at 200 ppm [4]

CC(Nc1ncnc2c(C(F)(F)F)cc(Cl)cc12)c1ncnn1-c1ccc(OC(F)F)cn1 (stereo not drawn) [P.235, 6-chloro-N-[1-[2-[5-(difluoromethoxy)-2-pyridyl]-1,2,4-triazol-3-yl]ethyl]-8-(trifluoromethyl)quinazolin-4-amine]
≥ 80%: percent control (mortality, anti-feedant effect or growth inhibition) at 200 ppm [1] | percent control (mortality or growth inhibition) at 200 ppm [2] | percent control (mortality or growth inhibition) at 200 ppm [3] | percent control (mortality, anti-feedant effect or growth inhibition) at 200 ppm [4]

CC(c1ncnn1-c1ccc(Br)cn1)N(C)c1ncnc2c(C(F)(F)F)cc(Br)cc12 (stereo not drawn) [P.237, 6-bromo-N-[1-[2-(5-bromo-2-pyridyl)-1,2,4-triazol-3-yl]ethyl]-N-methyl-8-(trifluoromethyl)quinazolin-4-amine]
≥ 80%: percent control (mortality, anti-feedant effect or growth inhibition) at 200 ppm [1] | percent control (mortality or growth inhibition) at 200 ppm [2] | percent control (mortality or growth inhibition) at 200 ppm [3] | percent control (mortality, anti-feedant effect or growth inhibition) at 200 ppm [4]

CC(c1ncnn1-c1ccc(Br)cn1)N(C)c1ncnc2c(C(F)(F)F)cc(Cl)cc12 (stereo not drawn) [P.238, N-[1-[2-(5-bromo-2-pyridyl)-1,2,4-triazol-3-yl]ethyl]-6-chloro-N-methyl-8-(trifluoromethyl)quinazolin-4-amine]
≥ 80%: percent control (mortality, anti-feedant effect or growth inhibition) at 200 ppm [1] | percent control (mortality or growth inhibition) at 200 ppm [2] | percent control (mortality or growth inhibition) at 200 ppm [3] | percent control (mortality, anti-feedant effect or growth inhibition) at 200 ppm [4]

CC(c1ncnn1-c1ccc(Br)cn1)N(C)c1ncnc2c(Br)cc(C(F)(F)F)cc12 (stereo not drawn) [P.239, 8-bromo-N-[1-[2-(5-bromo-2-pyridyl)-1,2,4-triazol-3-yl]ethyl]-N-methyl-6-(trifluoromethyl)quinazolin-4-amine]
≥ 80%: percent control (mortality, anti-feedant effect or growth inhibition) at 200 ppm [1] | percent control (mortality or growth inhibition) at 200 ppm [2] | percent control (mortality or growth inhibition) at 200 ppm [3] | percent control (mortality, anti-feedant effect or growth inhibition) at 200 ppm [4]

CC(c1ncnn1-c1ccc(Br)cn1)N(C)c1ncnc2c(Cl)cc(C(F)(F)F)cc12 (stereo not drawn) [P.240, N-[1-[2-(5-bromo-2-pyridyl)-1,2,4-triazol-3-yl]ethyl]-8-chloro-N-methyl-6-(trifluoromethyl)quinazolin-4-amine]
≥ 80%: percent control (mortality, anti-feedant effect or growth inhibition) at 200 ppm [1] | percent control (mortality or growth inhibition) at 200 ppm [2] | percent control (mortality or growth inhibition) at 200 ppm [3] | percent control (mortality, anti-feedant effect or growth inhibition) at 200 ppm [4]

CC(c1ncnn1-c1ccc(Br)cn1)N(C)c1ncnc2c(C(F)(F)F)cc(C(F)(F)F)cc12 (stereo not drawn) [P.241, N-[1-[2-(5-bromo-2-pyridyl)-1,2,4-triazol-3-yl]ethyl]-N-methyl-6,8-bis(trifluoromethyl)quina-zolin-4-amine]
≥ 80%: percent control (mortality, anti-feedant effect or growth inhibition) at 200 ppm [1] | percent control (mortality or growth inhibition) at 200 ppm [2] | percent control (mortality or growth inhibition) at 200 ppm [3] | percent control (mortality, anti-feedant effect or growth inhibition) at 200 ppm [4]

CC(Nc1ncnc2c(OC(F)F)cc(Br)cc12)c1ncnn1-c1ccc(C#N)cn1 (stereo not drawn) [P.244, 6-[5-[1-[[6-bromo-8-(difluoromethoxy)quinazo-lin-4-yl]amino]ethyl]-1,2,4-triazol-1-yl]pyridine-3-carbonitrile]
≥ 80%: percent control (mortality, anti-feedant effect or growth inhibition) at 200 ppm [1] | percent control (mortality or growth inhibition) at 200 ppm [2] | percent control (mortality or growth inhibition) at 200 ppm [3] | percent control (mortality, anti-feedant effect or growth inhibition) at 200 ppm [4]

CC(Nc1ncnc2c(OC(F)(F)F)cc(Br)cc12)c1ncnn1-c1ccc(C#N)cn1 (stereo not drawn) [P.247, 6-[5-[1-[[6-bromo-8-(trifluoromethoxy)quinazo-lin-4-yl]amino]ethyl]-1,2,4-triazol-1-yl]pyridine-3-carbonitrile]
≥ 80%: percent control (mortality, anti-feedant effect or growth inhibition) at 200 ppm [1] | percent control (mortality or growth inhibition) at 200 ppm [2] | percent control (mortality or growth inhibition) at 200 ppm [3] | percent control (mortality, anti-feedant effect or growth inhibition) at 200 ppm [4]

CC(c1nccnc1-c1ncccn1)N(C)c1ccnc2c(C(F)(F)F)cc(C(F)(F)F)cc12 (stereo not drawn) [P.249, N-methyl-N-[1-(3-pyrimidin-2-ylpyrazin-2-yl)ethyl]-6,8-bis(trifluoromethyl)quino-lin-4-amine]
≥ 80%: percent control (mortality, anti-feedant effect or growth inhibition) at 200 ppm [1] | percent control (mortality or growth inhibition) at 200 ppm [2] | percent control (mortality or growth inhibition) at 200 ppm [3] | percent control (mortality, anti-feedant effect or growth inhibition) at 200 ppm [4]

CC(c1ncnn1-c1ncccn1)N(C)c1nccc2c(C(F)(F)F)cc(C(F)(F)F)cc12 (stereo not drawn) [P.250, N-methyl-N-[1-(2-pyrimidin-2-yl-1,2,4-triazol-3-yl)ethyl]-5,7-bis(trifluoromethyl)isoquino-lin-1-amine]
≥ 80%: percent control (mortality, anti-feedant effect or growth inhibition) at 200 ppm [1] | percent control (mortality or growth inhibition) at 200 ppm [2] | percent control (mortality or growth inhibition) at 200 ppm [3] | percent control (mortality, anti-feedant effect or growth inhibition) at 200 ppm [4]

C[C@H](Nc1ccnc2c(C(F)(F)F)cc(C(F)(F)F)cc12)c1ncnn1-c1ccc(C#N)cn1 [P.251, 6-[5-[(1S)-1-[[6,8-bis(trifluoromethyl)-4-quinolyl]amino]ethyl]-1,2,4-triazol-1-yl]pyridine-3-carbonitrile]
≥ 80%: percent control (mortality, anti-feedant effect or growth inhibition) at 200 ppm [1] | percent control (mortality or growth inhibition) at 200 ppm [2] | percent control (mortality or growth inhibition) at 200 ppm [3] | percent control (mortality, anti-feedant effect or growth inhibition) at 200 ppm [4]

C[C@H](Nc1ccnc2c(C(F)(F)F)cc(Br)cc12)c1ncnn1-c1ccc(C#N)cn1 [P.252, 6-[5-[(1S)-1-[[6-bromo-8-(trifluoromethyl)-4-quinolyl]amino]ethyl]-1,2,4-triazol-1-yl]pyridine-3-carbonitrile]
≥ 80%: percent control (mortality, anti-feedant effect or growth inhibition) at 200 ppm [1] | percent control (mortality or growth inhibition) at 200 ppm [2] | percent control (mortality or growth inhibition) at 200 ppm [3] | percent control (mortality, anti-feedant effect or growth inhibition) at 200 ppm [4]

C[C@H](Nc1ccnc2c(C(F)(F)F)cc(Br)cc12)c1ncnn1-c1ncccn1 [P.253, 6-bromo-N-[(1S)-1-(2-pyrimidin-2-yl-1,2,4-triazol-3-yl)ethyl]-8-(trifluoromethyl)quinolin-4-amine]
≥ 80%: percent control (mortality, anti-feedant effect or growth inhibition) at 200 ppm [1] | percent control (mortality or growth inhibition) at 200 ppm [2] | percent control (mortality or growth inhibition) at 200 ppm [3] | percent control (mortality, anti-feedant effect or growth inhibition) at 200 ppm [4]

C[C@@H](c1ncnn1-c1ncccn1)N(C)c1ccnc2c(Br)cc(C(F)(F)F)cc12 [P.255, 8-bromo-N-methyl-N-[(1S)-1-(2-pyrimidn-2-yl-1,2,4-triazol-3-yl)ethyl]-6-(trifluoromethyl)quinolin-4-amine]
≥ 80%: percent control (mortality, anti-feedant effect or growth inhibition) at 200 ppm [1] | percent control (mortality or growth inhibition) at 200 ppm [2] | percent control (mortality or growth inhibition) at 200 ppm [3] | percent control (mortality, anti-feedant effect or growth inhibition) at 200 ppm [4]

CC(c1ncnn1-c1ccc(C#N)cn1)N(C)c1ncnc2c(Br)cc(Br)cc12 (stereo not drawn) [P.257, 6-[5-[1-[(6,8-dibromoquinazolin-4-yl)-methyl-amino]ethyl]-1,2,4-triazol-1-yl]pyridin-3-carbonitrile]
≥ 80%: percent control (mortality, anti-feedant effect or growth inhibition) at 200 ppm [1] | percent control (mortality or growth inhibition) at 200 ppm [2] | percent control (mortality or growth inhibition) at 200 ppm [3] | percent control (mortality, anti-feedant effect or growth inhibition) at 200 ppm [4]

CC(c1nccnc1-c1ccc(OC(F)F)cn1)N(C)c1ncnc2c(C(F)(F)F)cc(Br)cc12 (stereo not drawn) [P.273, 6-bromo-N-[1-[3-[5-(difluoromethoxy)-2-pyridyl]pyrazin-2-yl]ethyl]-N-methyl-8-(trifluoromethyl)quinazolin-4-amine]
≥ 80%: percent control (mortality, anti-feedant effect or growth inhibition) at 200 ppm [1] | percent control (mortality or growth inhibition) at 200 ppm [2] | percent control (mortality or growth inhibition) at 200 ppm [3] | percent control (mortality, anti-feedant effect or growth inhibition) at 200 ppm [4]

CC(Nc1ncnc2c(Cl)cc(C(F)(F)F)cc12)c1ncnn1-c1ccc(F)cn1 (stereo not drawn) [P.274, 8-chloro-N-[1-[2-(5-fluroo-2-pyridyl)-1,2,4-triazol-3-yl]ethyl]-6-(trifluoromethyl)quinazolin-4-amine]
≥ 80%: percent control (mortality, anti-feedant effect or growth inhibition) at 200 ppm [1] | percent control (mortality or growth inhibition) at 200 ppm [2] | percent control (mortality or growth inhibition) at 200 ppm [3] | percent control (mortality, anti-feedant effect or growth inhibition) at 200 ppm [4]

— US20230002359A1, “PESTICIDALLY ACTIVE FUSED BICYCLIC HETEROAROMATIC COMPOUNDS” (priority 2019, published 2023)
